Values quoted from earlier work as cited in patent publication US10478472B2, “Combination of tolerogenic peptides and TFG-B for use in the induction and maintenance of oral tolerance in young mammals” (NESTEC S.A., priority 2015, dated 2019).

Conditions: identified as part of a longer peptide sequence in WO2000/42863

Substance | inducers of oral tolerance
EVDDEALEK (listed as Bos taurus) [SEQ ID No. 8, BLG peptide, position 143-151] | inducers of oral tolerance
IDALNENK (listed as Bos taurus) [SEQ ID No. 6, BLG peptide, position 100-107] | inducers of oral tolerance
VLDTDY (listed as Bos taurus) [SEQ ID No. 7, BLG peptide, position 110-115] | inducers of oral tolerance
